Test results: paper PMC9694544, “Conteltinib (CT-707) in patients with advanced ALK-positive non-small cell lung cancer: a multicenter, open-label, first-in-human phase 1 study” (BMC Medicine, 2022)

Test system: patients with ALK-positive NSCLC
Assay: Phase 1 safety assessment (TRAEs by CTCAE 4.03, DLT, MTD, RP2D)
Assay type: in vivo, human
Description: In the dose-escalation phase, the dose was escalated sequentially from a low to a high level with a 3 + 3 dose-escalation scheme based on the modified Fibonacci method. The starting dose for conteltinib was 50 mg orally quaque die (QD). Dose escalation proceeded to the next six cohorts of 100 mg, 200 mg, 300 mg, 450 mg, 600 mg, and 800 mg QD. For each dose, there was a PK lead-in phase where a single dose was given 7 days before cycle 1 day 1. Then, each dose was taken continuously in a 28-day cycle. The first cycle was for dose-limiting toxicity (DLT) investigation. When one of three patients experienced a DLT in a dose cohort, three additional patients were enrolled in the same dose cohort to assess the dose level in a total of six patients. All patients received conteltinib until disease progression, unacceptable toxicity, or withdrawal of consent. Patients received follow-up safety assessments for 30 days (±7 days) after the last conteltinib dose.
In the dose-expansion phase, each dose was taken continuously in a 28-day cycle. At the end of each cycle, a safety evaluation was conducted. If patients met the criteria to enter the next cycle, treatment with conteltinib was continued for subsequent cycles. All patients received conteltinib until disease progression, unacceptable toxicity, or withdrawal of consent. Patients received follow-up safety assessments for 30 days (±7 days) after the last dose of conteltinib.
The safety of conteltinib was assessed in safety set (SS) which was based on the National Cancer Institute Common Terminology Criteria for Adverse Events (CTCAE) version 4.03, laboratory tests, vital signs, ECG, and clinical observations. […] Adverse events (AEs) were judged to be treatment-related or not by investigators.
DLTs were AEs occurring in the first cycle of treatment (28 days) that were attributed to conteltinib, and the criteria were grade 4 neutropenia lasting ≥ 7 days, febrile neutropenia, grade 3 thrombocytopenia, grade 3 non-hematologic toxicity, and any conteltinib-related toxicity resulting in treatment delay > 2 weeks or discontinuation of conteltinib treatment at the assigned dose level. Besides, grade 3 nausea, vomiting, or diarrhea for ≥ 3 days or grade 4 nausea, vomiting, or diarrhea of any duration was considered as a DLT. The MTD was defined as the dose of conteltinib that would be closest to but not higher than a 33% probability of a DLT.

## COc1cc(N2CCC(N3CCN(C)CC3)CC2)ccc1Nc1nc2c(c(Nc3ccccc3S(=O)(=O)NC(C)C)n1)CCN2 [Conteltinib]
50 mg QD (n=2), Grade 1–2
  Patients with any TRAE: 1 (50.0) n (%)
  TRAE ALT elevated: 0 (0.0) n (%)
  TRAE AST elevated: 0 (0.0) n (%)
  TRAE Abdominal pain: 0 (0.0) n (%)
  TRAE Abdominal pain upper: 0 (0.0) n (%)
  TRAE Appetite decreased: 0 (0.0) n (%)
  TRAE Conjugated bilirubin elevated: 0 (0.0) n (%)
  TRAE Diarrhea: 1 (50.0) n (%)
  TRAE Hypercholesterolemia: 0 (0.0) n (%)
  TRAE Hyperglycemia: 0 (0.0) n (%)
  TRAE Hypertriglyceridemia: 0 (0.0) n (%)
  TRAE Hyperuricemia: 0 (0.0) n (%)
  TRAE Hypoalbuminemia: 0 (0.0) n (%)
  TRAE Nausea: 0 (0.0) n (%)
  TRAE Proteinuria: 0 (0.0) n (%)
  TRAE Serum creatinine elevated: 0 (0.0) n (%)
  TRAE Vomiting: 0 (0.0) n (%)
  TRAE Weight loss: 0 (0.0) n (%)
  TRAE γ-GGT elevated: 0 (0.0) n (%)
50 mg QD (n=2), Grade ≥ 3
  Patients with any TRAE: 0 (0.0) n (%)
  TRAE ALT elevated: 0 (0.0) n (%)
  TRAE AST elevated: 0 (0.0) n (%)
  TRAE Abdominal pain: 0 (0.0) n (%)
  TRAE Abdominal pain upper: 0 (0.0) n (%)
  TRAE Appetite decreased: 0 (0.0) n (%)
  TRAE Conjugated bilirubin elevated: 0 (0.0) n (%)
  TRAE Diarrhea: 0 (0.0) n (%)
  TRAE Hypercholesterolemia: 0 (0.0) n (%)
  TRAE Hyperglycemia: 0 (0.0) n (%)
  TRAE Hypertriglyceridemia: 0 (0.0) n (%)
  TRAE Hyperuricemia: 0 (0.0) n (%)
  TRAE Hypoalbuminemia: 0 (0.0) n (%)
  TRAE Nausea: 0 (0.0) n (%)
  TRAE Proteinuria: 0 (0.0) n (%)
  TRAE Serum creatinine elevated: 0 (0.0) n (%)
  TRAE Vomiting: 0 (0.0) n (%)
  TRAE Weight loss: 0 (0.0) n (%)
  TRAE γ-GGT elevated: 0 (0.0) n (%)
100 mg QD (n=8), Grade 1–2
  Patients with any TRAE: 6 (75.0) n (%)
  TRAE ALT elevated: 1 (12.5) n (%)
  TRAE AST elevated: 2 (25.0) n (%)
  TRAE Abdominal pain: 0 (0.0) n (%)
  TRAE Abdominal pain upper: 1 (12.5) n (%)
  TRAE Appetite decreased: 0 (0.0) n (%)
  TRAE Conjugated bilirubin elevated: 1 (12.5) n (%)
  TRAE Diarrhea: 0 (0.0) n (%)
  TRAE Hypercholesterolemia: 1 (12.5) n (%)
  TRAE Hyperglycemia: 1 (12.5) n (%)
  TRAE Hypertriglyceridemia: 1 (12.5) n (%)
  TRAE Hyperuricemia: 1 (12.5) n (%)
  TRAE Hypoalbuminemia: 0 (0.0) n (%)
  TRAE Nausea: 3 (37.5) n (%)
  TRAE Proteinuria: 0 (0.0) n (%)
  TRAE Serum creatinine elevated: 2 (25.0) n (%)
  TRAE Vomiting: 1 (12.5) n (%)
  TRAE Weight loss: 0 (0.0) n (%)
  TRAE γ-GGT elevated: 0 (0.0) n (%)
100 mg QD (n=8), Grade ≥ 3
  Patients with any TRAE: 0 (0.0) n (%)
  TRAE ALT elevated: 0 (0.0) n (%)
  TRAE AST elevated: 0 (0.0) n (%)
  TRAE Abdominal pain: 0 (0.0) n (%)
  TRAE Abdominal pain upper: 0 (0.0) n (%)
  TRAE Appetite decreased: 0 (0.0) n (%)
  TRAE Conjugated bilirubin elevated: 0 (0.0) n (%)
  TRAE Diarrhea: 0 (0.0) n (%)
  TRAE Hypercholesterolemia: 0 (0.0) n (%)
  TRAE Hyperglycemia: 0 (0.0) n (%)
  TRAE Hypertriglyceridemia: 0 (0.0) n (%)
  TRAE Hyperuricemia: 0 (0.0) n (%)
  TRAE Hypoalbuminemia: 0 (0.0) n (%)
  TRAE Nausea: 0 (0.0) n (%)
  TRAE Proteinuria: 0 (0.0) n (%)
  TRAE Serum creatinine elevated: 0 (0.0) n (%)
  TRAE Vomiting: 0 (0.0) n (%)
  TRAE Weight loss: 0 (0.0) n (%)
  TRAE γ-GGT elevated: 0 (0.0) n (%)
200 mg QD (n=3), Grade 1–2
  Patients with any TRAE: 3 (100) n (%)
  TRAE ALT elevated: 0 (0.0) n (%)
  TRAE AST elevated: 1 (33.3) n (%)
  TRAE Abdominal pain: 0 (0.0) n (%)
  TRAE Abdominal pain upper: 0 (0.0) n (%)
  TRAE Appetite decreased: 0 (0.0) n (%)
  TRAE Conjugated bilirubin elevated: 0 (0.0) n (%)
  TRAE Diarrhea: 0 (0.0) n (%)
  TRAE Hypercholesterolemia: 0 (0.0) n (%)
  TRAE Hyperglycemia: 0 (0.0) n (%)
  TRAE Hypertriglyceridemia: 0 (0.0) n (%)
  TRAE Hyperuricemia: 1 (33.3) n (%)
  TRAE Hypoalbuminemia: 0 (0.0) n (%)
  TRAE Nausea: 0 (0.0) n (%)
  TRAE Proteinuria: 0 (0.0) n (%)
  TRAE Serum creatinine elevated: 0 (0.0) n (%)
  TRAE Vomiting: 0 (0.0) n (%)
  TRAE Weight loss: 0 (0.0) n (%)
  TRAE γ-GGT elevated: 0 (0.0) n (%)
200 mg QD (n=3), Grade ≥ 3
  Patients with any TRAE: 0 (0.0) n (%)
  TRAE ALT elevated: 0 (0.0) n (%)
  TRAE AST elevated: 0 (0.0) n (%)
